Results on five molecules are retold here after article PMC7747594, “Protease-activated receptor-2 ligands reveal orthosteric and allosteric mechanisms of receptor inhibition” (Communications Biology, 2020).

For data set [1], the target named is T1, hPAR2 (Homo sapiens, UniProt P55085).
T1 sequence (P55085 26-397): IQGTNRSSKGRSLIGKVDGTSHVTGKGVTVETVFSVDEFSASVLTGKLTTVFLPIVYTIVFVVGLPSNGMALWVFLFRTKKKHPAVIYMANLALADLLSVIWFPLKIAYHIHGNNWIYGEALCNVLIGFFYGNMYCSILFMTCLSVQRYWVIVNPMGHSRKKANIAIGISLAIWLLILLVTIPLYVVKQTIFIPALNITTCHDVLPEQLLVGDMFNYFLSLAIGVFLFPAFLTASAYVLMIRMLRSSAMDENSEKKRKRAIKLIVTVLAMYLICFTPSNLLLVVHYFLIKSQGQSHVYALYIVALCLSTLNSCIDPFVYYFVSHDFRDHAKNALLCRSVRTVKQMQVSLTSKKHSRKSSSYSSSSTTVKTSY
In words: Schild and allosteric model analysis of Ca^2+ mobilisation in CHO-hPAR2 cells (2f-LIGRL-NH2 or trypsin). It counts as cell-based. Also on record: key to Relative activity: (Emax·EC50')/(Emax'·EC50), Hill slope held at 1; Emax: scale not given here. On the procedure:
(§1) Cells were loaded with Fluo-8 NW calcium dye (AAT Bioquest) for 30 min at 37 °C before compounds in Hank’s balanced salt solution (HBSS, ThermoFisher Scientific) with 20 mM HEPES (ThermoFisher Scientific), 0.1% bovine serum albumin (BSA, Sigma) and 0.5% DMSO were added and simultaneously evaluated for changes in intracellular [Ca^2+] using FLIPR TETRA (Molecular Devices) to detect agonism. For each concentration, the difference between the maximum peak Ca^2+ response and baseline response is reported. […] Antagonism experiments were also carried out on 1321N1-PAR2[WT], 1321N1-PAR2[F154A], and 1321N1-PAR2[G157C] as described. Experiments with trypsin in 1321N1-hPAR2 cells were performed in the presence of 1 µM Vorapaxar (Chemtronica) to remove any interference of PAR1 activity. […] Antagonism experiments for CHO-hPAR2 and HT-29 cells were performed in 96-well plates at 30,000 cells/well. Cells were loaded with Fluo-3 AM calcium dye (Sigma-Aldrich) for 60 min at 37 °C in HBSS with 1% FBS, 0.2% pluronic acid, 20 mM HEPES and 2.5 mM probenecid prior to the addition of antagonist. The antagonist was pre-incubated for 60 min at 37 °C followed by the addition of bovine trypsin (30 nM) at EC80. Intracellular [Ca^2+] flux was measured using FLIPR TETRA (Molecular Devices) and the difference between the maximum peak Ca^2+ response and baseline response is reported.
(§2) Binding data were analysed using the One site – Fit Ki model in GraphPad Prism 8 (GraphPad Software) to determine binding affinity. Pharmacology in vitro potency data was analysed with a 4-parameter logistic fit using the equation y = Bottom + (Top − Bottom)/[…] where y is the response, x is the 10-logarithm of the drug concentration, Bottom is no response and Top is full response in GraphPad Prism 8 or Genedata Screener (Genedata). pEC50 and pIC50 data are presented as mean ± standard error of the mean (s.e.m.) derived from the number of independent experiments stated. Schild slope analysis was calculated using Graphpad Prism 8 Gaddum/Schild EC50 global fitting (shared model parameters between all data sets) competitive model. […] Schild slope quantifies the shifts in agonist response in the presence of antagonist, a Schild slope of 1 indicates the antagonist is competitive and extra-sum-of-squares F-test (p < 0.05) was used to compare the calculated Schild slope against a hypothetical Schild slope of 1. […] The relative activity was calculated using (EmaxEC50’)/(Emax’EC50) with the Hill slope help constant at 1. EC50’ and Emax’ denote the EC50 and Emax in the absence of allosteric modulator, while EC50 and Emax denote those measured in the presence of allosteric modulator. When the Hill slope = 1, the relative activity plot approaches an asymptote corresponding to the estimate of the γ value.

For data set [2], the target named is T1, hPAR2. As to the kind of experiment: Europium-tagged competition binding assay against Eu-tagged-2f-LIGRLO(dtpa)-NH2 on CHO-hPAR2 cells. Also on record: expressed in transfected cells; host or cells: Flp-In CHO. Particulars: determined with Eu-tagged-2f-LIGRLO(dtpa)-NH2; read-out: equilibrium dissociation constant pKA / pKB (converted). The method, then:
CHO-hPAR2 cells were seeded overnight in 384-well plate at 2.5 × 10^4 cells/well and blocked with 2% BSA for 60 min. […] Cells were washed 3× with PBS supplemented with 20 µM EDTA, 0.01% Tween and 0.2% BSA followed by addition of DELFIA Enhancement Solution (Perkin Elmer) for 90 min. Time-resolved fluorescence was measured with PHERAstar FS reader (BMG Labtech).
as §2

A further data set deals with parental 1321N1 cells. In words: Ca^2+ flux assay, agonist mode, parental 1321N1 cells. It counts as cell-based. Details: Ca2+ response (Fig 2c), individual replicate values: unit not given here. Particulars: control. The method, then:
as §1

For another data set, the target named is T2, rat PAR2 (Rattus norvegicus, UniProt Q63645).
T2 construct: a rat KNRK cell line with endogenous expression of rat PAR2; host or cells: rat KNRK cells
T2 sequence (Q63645 26-397): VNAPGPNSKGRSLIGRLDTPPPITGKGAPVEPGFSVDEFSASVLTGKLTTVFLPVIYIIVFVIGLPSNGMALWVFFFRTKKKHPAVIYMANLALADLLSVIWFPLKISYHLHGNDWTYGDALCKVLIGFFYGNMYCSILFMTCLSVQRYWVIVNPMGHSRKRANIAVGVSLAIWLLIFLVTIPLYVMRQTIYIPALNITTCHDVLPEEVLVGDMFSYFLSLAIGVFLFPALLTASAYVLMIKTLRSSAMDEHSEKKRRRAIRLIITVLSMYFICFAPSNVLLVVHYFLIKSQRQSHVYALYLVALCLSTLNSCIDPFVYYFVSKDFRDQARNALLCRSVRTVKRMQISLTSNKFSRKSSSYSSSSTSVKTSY
In words: Ca^2+ flux assay, inhibition of SLIGRL-NH2 activation in rat KNRK cells. The data set is classed as cell-based.

Where [3] appears, read: agonist in presence of AZ3451 0.1 µM.
Setting [4] is: agonist in presence of AZ3451 0.3 µM.
Where [5] appears, read: agonist in presence of AZ3451 1 µM.
Where [6] appears, read: agonist in presence of AZ3451 3 µM.
[7] abbreviates: agonist in presence of AZ3451 10 µM.
[8] abbreviates: agonist in presence of AZ3451 30 µM, CHO-hPAR2, Ca^2+.

“And” between values parts separate entries of the source, which are not always exact repeats. Equal values may be shown once. Read-outs that look alike come from different tables or passages of the source. Square brackets hold non-standard residues; d marks the D form. Peptide text beside a SMILES is read from it. * marks the point of attachment. Orn = NCCC[C@H](N)C(=O)O; 2Furoyl = O=C(c1ccco1)*

Broadly, the EC50 is the concentration that produces a half-maximal response. Trypsin: the Emax on hPAR2 [1] (agonist alone, AZ3451 0 µM) worked out at 102; at hPAR2 [1] (setting [3]), 96; on hPAR2 [1] (setting [4]), 90; at hPAR2 [1] (setting [5]), 90; at hPAR2 [1] (setting [6]), 89; at hPAR2 [1] (setting [7]), 74. In addition, the Emax at hPAR2 [1] (setting [8]) is 61. The Relative activity in the data set with hPAR2 [1] (agonist alone, AZ3451 0 µM) amounted to 1; in the data set with hPAR2 [1] (setting [3]) it was 0.43; with hPAR2 [1] (setting [4]), 0.28; with hPAR2 [1] (setting [5]), 0.20; in the data set with hPAR2 [1] (setting [6]) it was 0.17; with hPAR2 [1] (setting [7]), 0.12. The Relative activity in the data set with hPAR2 [1] (setting [8]) was found to be 0.09. The EC50 at hPAR2 [1] (agonist alone, AZ3451 0 µM, read-out: EC50) was determined as 6 nM.

Consider `CC[C@H](C)[C@H](NC(=O)[C@H](CC(C)C)NC(=O)c1ccco1)C(=O)NCC(=O)N[C@@H](CCCNC(=N)N)C(=O)N[C@@H](CC(C)C)C(N)=O` [2f-LIGRL-NH2, reference compound], for which, on hPAR2 [1], the EC50 was found to be 250 nM.

As to `CC[C@H](C)[C@H](NC(=O)[C@H](CC(C)C)NC(=O)c1ccco1)C(=O)NCC(=O)N[C@@H](CCCN=C(N)N)C(=O)N[C@@H](CC(C)C)C(=O)N[C@@H](CCCN)C(N)=O` [2f-LIGRLO-NH2, reference compound] (2Furoyl-LIGRL[Orn]-NH2), on hPAR2 [2], the Kb was 794 nM.

Regarding `CC[C@H](C)[C@H](NC(=O)[C@H](CC1CCCCC1)NC(=O)c1ccno1)C(=O)NCc1cccc(C(=O)N2CCC(CN)CC2)c1` [GB110, reference compound], the “Ca2+ response (Fig 2c), individual replicate values” was 2.5854 and 0.2936 and 4.934 and 1.6114 in the data set with parental 1321N1 cells ([compound],M -4.30103); 2.299 and 3.846 and -3.259 with parental 1321N1 cells ([compound],M -4.77815); 4.705 and 2.815 and -0.222 and 3.388 with parental 1321N1 cells ([compound],M -5.25527); 1.44 and 1.382 with parental 1321N1 cells ([compound],M -5.73239); 3.273 and 1.783 and 1.382 and 0.4082 in the data set with parental 1321N1 cells ([compound],M -6.20952); 2.872 and -6.524 in the data set on parental 1321N1 cells ([compound],M -6.68664). Further, the “Ca2+ response (Fig 2c), individual replicate values” with parental 1321N1 cells ([compound],M -7.16376) is -2.227 and 0.1217 and -2.055 and -7.498; in the data set with parental 1321N1 cells ([compound],M -7.64088), -2.514 and 3.502 and -1.826 and -6.754; in the data set with parental 1321N1 cells ([compound],M -8.118) it was -3.774 and -3.545 and -0.5085; in the data set with parental 1321N1 cells ([compound],M -8.59512), -10.4777 and -3.774 and -5.436 and -3.201.

The term IC50 denotes the midpoint of a concentration-inhibition curve. At rat PAR2, `CCc1ccc2c(F)ccc(C(O)c3ncc[nH]3)n12` (stereo not shown) [AZ0107] showed a concentration for half-maximal inhibition (IC50) of 3.16 µM.
